SMILES strings stand for the structures.

This assay relates to Umbilical cord derived mesenchymal stem cells. Briefly: Biopreservation of MSCs at 4° C. for three days (viability by trypan blue, adhesion, proliferation, migration). The class given is cell-based. Particulars: 0.1 μM in CBS, P<0.01. As to the method:
Approximately 200,000 umbilical cord derived mesenchymal stem cells were stored in 200 μl of commercial biopreservation solution (CBS) as a control and 200 μl of CBS supplemented with the medium supplement of the invention. The samples were kept at 4° C. for three days. Cells were resuspended in DMEM base, and viability was assessed by trypan blue exclusion assay. […] Cell adhesion was evaluated 24 hours after cells were seeded in 10 mm plates. […] Finally, the cells preserved with CBS proliferated less than those preserved in CBS with pterostilbene (FIG. 4D). Therefore, the solution of the invention improves the functionality of the cells after 3 days of biopreservation.

Turning to `COc1cc(/C=C/c2ccc(O)cc2)cc(OC)c1` [Pterostilbene], the “cell viability better compared to CBS alone” value is on record as “approximately 10%”.
